Test results from patent publication US20240041042A1, “1-(PYRIDYL)-5-AZINYLPYRAZOLE DERIVATIVES, AND THEIR USE FOR CONTROL OF UNDESIRED PLANT GROWTH” (Bayer Aktiengesellschaft, priority 2020, published 2024).
Where two headings read alike, the source gives them in different places.

How the values were obtained:
Type in all cases: in vivo
[1] = tested on: Abutilon theophrasti (ABUTH); experiment: Post-emergence herbicidal action against ABUTH; settings: visual rating about 3 weeks after treatment vs untreated controls (100% = plants have died, 0% = like control plants)
Summary of the method: (§1)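 Values are percent visual activity (0% like control, 100% plants dead) after about 3 weeks in the greenhouse. Treatment: post-emergence spray at one-leaf stage, 600 l/ha spray volume, 0.5% additive, doses 320 g/ha or lower.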

[2] = tested on: Alopecurus myosuroides (ALOMY); experiment: Post-emergence herbicidal action against ALOMY; settings: visual rating about 3 weeks after treatment vs untreated controls (100% = plants have died, 0% = like control plants)
Summary of the method: as §1

[3] = tested on: Amaranthus retroflexus (AMARE); experiment: Post-emergence herbicidal action against AMARE
Summary of the method: as §1

Avena fatua (AVEFA) = experiment: Post-emergence herbicidal action against AVEFA; settings: visual rating about 3 weeks after treatment
Summary of the method: as §1

[4] = tested on: Digitaria sanguinalis (DIGSA); experiment: Post-emergence herbicidal action against DIGSA; settings: visual rating about 3 weeks after treatment
Protocol: Seeds of monocotyledonous and dicotyledonous weeds and crop plants are placed in sandy loam in plastic or organic planting pots, covered with soil and cultivated in a greenhouse under controlled growth conditions. 2 to 3 weeks after sowing, the test plants are treated at the one-leaf stage. The compounds of the invention, formulated in the form of wettable powders (WP) or as emulsion concentrates (EC), are then sprayed onto the green parts of the plants as aqueous suspension or emulsion with addition of 0.5% additive at a water application rate of 600 l/ha (converted). After the test plants have been kept in the greenhouse under optimum growth conditions for about 3 weeks, the activity of the preparations is rated visually in comparison to untreated controls. For example, 100% activity=the plants have died, 0% activity=like control plants.
Tables B1 to B13 below show the effects of selected compounds of the general formula (I) according to Table 1 on various harmful plants and at an application rate corresponding to 320 g/ha or lower, which were obtained by the experimental procedure mentioned above. The appendices “a”, “b” and “c” give differentiation by dosage used with otherwise the same harmful plants tested.

[5] = tested on: Echinochloa crus-galli (ECHCG); experiment: Post-emergence herbicidal action against ECHCG
Summary of the method: as §1

Lolium rigidum (LOLRI) = experiment: Post-emergence herbicidal action against LOLRI
Summary of the method: as §1

[6] = tested on: Matricaria inodora (MATIN); experiment: Post-emergence herbicidal action against MATIN
Summary of the method: as §1

[7] = tested on: Pharbitis purpurea (PHBPU); experiment: Post-emergence herbicidal action against PHBPU
Summary of the method: as §1

[8] = tested on: Polygonum convolvulus (POLCO); experiment: Post-emergence herbicidal action against POLCO
Summary of the method: as §1

Setaria viridis (SETVI) = experiment: Post-emergence herbicidal action against SETVI
Summary of the method: as §1

[9] = tested on: Verconica persica (VERPE); experiment: Post-emergence herbicidal action against VERPE
Summary of the method: as §1

Viola tricolor (VIOTR) = experiment: Post-emergence herbicidal action against VIOTR
Summary of the method: as §1

Oryza sativa (ORYSA) = settings: crop plant compatibility
Summary of the method: (§2)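 One-leaf-stage crops (2–3 wk post-sowing, sandy loam, greenhouse) sprayed on green parts; 0.5% additive, 600 l/ha water. Rated by eye ~3 wk later, % vs untreated; suffixes a/b/c mark different dosages.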

Zea mays (ZEAMX) = settings: 20 g/ha, ZEAMX, effect in comparison to untreated controls
Summary of the method: as §2

[10] = 80 g/ha, visual rating about 3 weeks after treatment vs untreated controls (100% = plants have died, 0% = like control plants)
[11] = 320 g/ha, visual rating about 3 weeks after treatment
[12] = 20 g/ha, effect vs untreated controls
[13] = 80 g/ha, effect in comparison to untreated controls

Post-emergence action against ORYSA in % (Oryza sativa (ORYSA); [12]) [%] | SMILES | Post-emergence action against ABUTH in % ([1]; 320 g/ha) [%] | Post-emergence action against ALOMY in % ([2]; 320 g/ha) [%] | Post-emergence action against AMARE in % [3, 11] [%] | Post-emergence action against AVEFA in % (Avena fatua (AVEFA); 80 g/ha) [%] | Post-emergence action against AVEFA in % (Avena fatua (AVEFA); 320 g/ha) [%] | Post-emergence action against DIGSA in % ([4]; 320 g/ha) [%] | Post-emergence action against ECHCG in % ([5]; dosage 80 g/ha) [%] | Post-emergence action against ECHCG in % ([5]; dosage 320 g/ha) [%] | Post-emergence action against LOLRI in % (Lolium rigidum (LOLRI); dosage 320 g/ha) [%] | Post-emergence action against MATIN in % ([6]; dosage 320 g/ha) [%] | Post-emergence action against PHBPU in % ([7]; dosage 80 g/ha) [%] | Post-emergence action against PHBPU in % ([7]; dosage 320 g/ha) [%] | Post-emergence action against POLCO in % ([8]; dosage 320 g/ha) [%] | Post-emergence action against SETVI in % (Setaria viridis (SETVI); dosage 80 g/ha) [%] | Post-emergence action against SETVI in % (Setaria viridis (SETVI); dosage 320 g/ha) [%] | Post-emergence action against VERPE in % ([9]; 320 g/ha, VERPE) [%] | Post-emergence action against VERPE in % ([9]; dosage 80 g/ha) [%] | Post-emergence action against VIOTR in % (Viola tricolor (VIOTR); 80 g/ha) [%] | Post-emergence action against VIOTR in % (Viola tricolor (VIOTR); 320 g/ha) [%] | further results
10 | COC(=O)C(C)COC(=O)C(C)Oc1nn(-c2ccccn2)c(-c2ccc(F)nc2)c1Br (stereo not drawn) [Example I-285] | 80 | 90 |  |  | 80 | 90 |  | 80 | 90 | 80 | 80 | 90 | 80 | 90 | 90 | 80 | 80 | 80 | 80 | Post-emergence action against ALOMY in % ([2]; 80 g/ha): 90%; Post-emergence action against DIGSA in % ([4]; 80 g/ha): 80%; Post-emergence action against LOLRI in % (Lolium rigidum (LOLRI); dosage 80 g/ha): 80%; Post-emergence action against ORYSA in % (Oryza sativa (ORYSA); [13]): 10%; Post-emergence action against ZEAMX in % (crop plant compatibility) (Zea mays (ZEAMX)): 10%
0 | CCOC(=O)[C@@H](C)Oc1nn(-c2ncccc2F)c(-c2cncc(F)c2)c1Br [Example I-227] | 90 | 90 | 90 | 90 | 90 | 90 | 90 | 100 | 90 | 90 | 90 | 100 | 90 | 90 | 90 | 90 | 90 | 90 | 90 | Post-emergence action against ABUTH in % ([1]; 80 g/ha): 90%; Post-emergence action against ALOMY in % ([2]; 80 g/ha): 80%; Post-emergence action against AMARE in % [3, 10]: 90%; Post-emergence action against DIGSA in % ([4]; 80 g/ha): 80%; Post-emergence action against LOLRI in % (Lolium rigidum (LOLRI); dosage 80 g/ha): 80%; Post-emergence action against MATIN in % ([6]; dosage 80 g/ha): 80%; Post-emergence action against POLCO in % ([8]; dosage 80 g/ha): 90%

Second part, the compound before the results:

SMILES | Post-emergence action against ORYSA in % (Oryza sativa (ORYSA); [12]) [%] | Post-emergence action against ABUTH in % ([1]; 320 g/ha) [%] | Post-emergence action against ALOMY in % ([2]; 320 g/ha) [%] | Post-emergence action against AMARE in % [3, 11] [%] | Post-emergence action against AVEFA in % (Avena fatua (AVEFA); 80 g/ha) [%] | Post-emergence action against AVEFA in % (Avena fatua (AVEFA); 320 g/ha) [%] | Post-emergence action against DIGSA in % ([4]; 320 g/ha) [%] | Post-emergence action against ECHCG in % ([5]; dosage 80 g/ha) [%] | Post-emergence action against ECHCG in % ([5]; dosage 320 g/ha) [%] | Post-emergence action against LOLRI in % (Lolium rigidum (LOLRI); dosage 320 g/ha) [%] | Post-emergence action against MATIN in % ([6]; dosage 320 g/ha) [%] | Post-emergence action against PHBPU in % ([7]; dosage 80 g/ha) [%] | Post-emergence action against PHBPU in % ([7]; dosage 320 g/ha) [%] | Post-emergence action against POLCO in % ([8]; dosage 320 g/ha) [%] | Post-emergence action against SETVI in % (Setaria viridis (SETVI); dosage 80 g/ha) [%] | Post-emergence action against SETVI in % (Setaria viridis (SETVI); dosage 320 g/ha) [%] | Post-emergence action against VERPE in % ([9]; 320 g/ha, VERPE) [%] | Post-emergence action against VERPE in % ([9]; dosage 80 g/ha) [%] | Post-emergence action against VIOTR in % (Viola tricolor (VIOTR); 80 g/ha) [%] | Post-emergence action against VIOTR in % (Viola tricolor (VIOTR); 320 g/ha) [%] | further results
COC(=O)[C@@H](C)Oc1nn(-c2ncccc2F)c(-c2cncc(F)c2)c1C1CC1 [Example I-144] | 0 | 90 | 90 | 90 | 90 | 90 | 90 | 90 | 90 | 90 | 90 | 90 | 90 | 80 | 90 | 90 | 90 | 90 | 90 | 90 | Post-emergence action against ABUTH in % ([1]; 80 g/ha): 80%; Post-emergence action against ALOMY in % ([2]; 80 g/ha): 90%; Post-emergence action against AMARE in % [3, 10]: 90%; Post-emergence action against DIGSA in % ([4]; 80 g/ha): 90%; Post-emergence action against LOLRI in % (Lolium rigidum (LOLRI); dosage 80 g/ha): 90%; Post-emergence action against MATIN in % ([6]; dosage 80 g/ha): 90%; Post-emergence action against POLCO in % ([8]; dosage 80 g/ha): 80%
COC(=O)[C@@H](C)Oc1nn(-c2ncccc2F)c(-c2cncc(F)c2)c1I [Example I-197] | 0 | 90 | 90 | 90 | 90 | 90 | 90 | 90 | 90 | 90 | 90 | 90 | 100 | 90 | 90 | 90 | 90 | 90 | 90 | 90 | Post-emergence action against ABUTH in % ([1]; 80 g/ha): 90%; Post-emergence action against ALOMY in % ([2]; 80 g/ha): 90%; Post-emergence action against AMARE in % [3, 10]: 90%; Post-emergence action against DIGSA in % ([4]; 80 g/ha): 90%; Post-emergence action against LOLRI in % (Lolium rigidum (LOLRI); dosage 80 g/ha): 90%; Post-emergence action against MATIN in % ([6]; dosage 80 g/ha): 80%; Post-emergence action against POLCO in % ([8]; dosage 80 g/ha): 90%; Post-emergence action against ORYSA in % (Oryza sativa (ORYSA); [13]): 10%
COC(=O)[C@@H](C)Oc1nn(-c2ncccc2F)c(-c2cncc(F)c2)c1Cl [Example I-146] | 0 | 90 | 90 | 90 | 90 | 90 | 90 | 90 | 90 | 90 | 90 | 90 | 90 | 90 | 90 | 90 | 90 | 90 | 90 | 90 | Post-emergence action against ABUTH in % ([1]; 80 g/ha): 80%; Post-emergence action against AMARE in % [3, 10]: 90%; Post-emergence action against MATIN in % ([6]; dosage 80 g/ha): 90%; Post-emergence action against POLCO in % ([8]; dosage 80 g/ha): 80%
CCOC(=O)[C@@H](C)Oc1nn(-c2nc(F)ccc2F)c(-c2cncc(F)c2)c1C1CC1 [Example I-177] | 0 | 90 | 100 | 90 | 90 | 90 | 90 | 100 | 100 | 100 | 90 | 90 | 90 | 90 | 90 | 90 | 100 | 100 | 100 | 100 | Post-emergence action against ABUTH in % ([1]; 80 g/ha): 90%; Post-emergence action against AMARE in % [3, 10]: 90%; Post-emergence action against LOLRI in % (Lolium rigidum (LOLRI); dosage 80 g/ha): 100%; Post-emergence action against MATIN in % ([6]; dosage 80 g/ha): 90%; Post-emergence action against POLCO in % ([8]; dosage 80 g/ha): 90%
CCOC(=O)[C@@H](C)Oc1nn(-c2ncccc2F)c(-c2cncc(F)c2)c1C1CC1 [Example I-172] | 20 | 80 | 90 | 80 | 80 | 90 | 90 | 80 | 90 | 90 | 90 | 80 | 90 | 80 | 80 | 80 | 90 | 80 | 80 | 90 | Post-emergence action against ALOMY in % ([2]; 80 g/ha): 90%; Post-emergence action against DIGSA in % ([4]; 80 g/ha): 80%; Post-emergence action against LOLRI in % (Lolium rigidum (LOLRI); dosage 80 g/ha): 90%; Post-emergence action against MATIN in % ([6]; dosage 80 g/ha): 90%
